According to ChEMBL document CHEMBL4673209, “Discovery of a novel potent GPR40 full agonist” (Bioorg Med Chem Lett, 2018):
Calls of active or inactive are those of the source. The calls are words filed in the database; no cut-off is given here.

Experiments:
[1] = Protein binding in rat plasma; format: ADME, cell-free; settings: read-out: PPB (converted)
Cytochrome P450 2D6 = Cytochrome P450 2D6 (Homo sapiens, UniProt P10635); test: Inhibition of CYP2D6 (unknown origin); format: ADME
[2] = molecular target: T1, Free fatty acid receptor 1 (Homo sapiens, UniProt O14842); test: Agonist activity at human GPR40 receptor expressed in CHOK1 cells assessed as induction of IP1 accumulation at 10 uM relative to TAK875; format: functional, cell-based; settings: CHO-K1, filed as agonist
[3] = molecular target: T1, Free fatty acid receptor 1; test: Agonist activity at GPR40 in human islets assessed as induction of glucose-stimulated insulin secretion at 0.3 to 10 uM; format: tissue-based; settings: Pancreatic islet, filed as agonist, dose 0.3-10 µM
[4] = molecular target: T2, Peroxisome proliferator-activated receptor delta (Homo sapiens) (UniProt Q03181); test: Agonist activity at PPARbeta (unknown origin)
T2 sequence (whole entry): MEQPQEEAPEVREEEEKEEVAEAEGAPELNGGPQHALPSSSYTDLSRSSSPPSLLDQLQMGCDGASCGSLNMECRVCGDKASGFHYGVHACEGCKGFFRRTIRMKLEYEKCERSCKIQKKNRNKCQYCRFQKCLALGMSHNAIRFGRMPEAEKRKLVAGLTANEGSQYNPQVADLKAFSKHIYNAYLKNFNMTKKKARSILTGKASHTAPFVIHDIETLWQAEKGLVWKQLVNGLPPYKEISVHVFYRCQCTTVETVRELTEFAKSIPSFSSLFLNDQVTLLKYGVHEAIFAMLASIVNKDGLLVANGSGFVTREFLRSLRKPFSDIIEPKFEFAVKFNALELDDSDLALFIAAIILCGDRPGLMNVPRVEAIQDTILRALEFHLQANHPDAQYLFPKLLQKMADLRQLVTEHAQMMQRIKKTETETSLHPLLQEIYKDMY

[5] = molecular target: T3, Peroxisome proliferator-activated receptor alpha (Homo sapiens) (UniProt Q07869); test: Agonist activity at PPARalpha (unknown origin)
T3 sequence (whole entry): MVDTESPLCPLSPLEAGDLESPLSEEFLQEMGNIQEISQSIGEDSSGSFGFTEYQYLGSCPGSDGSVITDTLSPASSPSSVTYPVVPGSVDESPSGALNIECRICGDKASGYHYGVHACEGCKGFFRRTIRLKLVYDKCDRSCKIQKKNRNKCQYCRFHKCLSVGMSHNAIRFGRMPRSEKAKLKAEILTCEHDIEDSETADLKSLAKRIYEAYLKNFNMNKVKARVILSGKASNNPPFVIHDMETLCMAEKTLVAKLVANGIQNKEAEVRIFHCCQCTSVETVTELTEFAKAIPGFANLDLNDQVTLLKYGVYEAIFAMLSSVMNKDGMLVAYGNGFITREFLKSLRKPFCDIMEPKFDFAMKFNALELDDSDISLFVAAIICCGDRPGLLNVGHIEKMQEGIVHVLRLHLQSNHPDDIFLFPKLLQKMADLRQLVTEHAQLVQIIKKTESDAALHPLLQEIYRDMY

[6] = molecular target: T4, Free fatty acid receptor 4 (Homo sapiens) (UniProt Q5NUL3); test: Agonist activity at GPR120 (unknown origin)
T4 sequence (whole entry): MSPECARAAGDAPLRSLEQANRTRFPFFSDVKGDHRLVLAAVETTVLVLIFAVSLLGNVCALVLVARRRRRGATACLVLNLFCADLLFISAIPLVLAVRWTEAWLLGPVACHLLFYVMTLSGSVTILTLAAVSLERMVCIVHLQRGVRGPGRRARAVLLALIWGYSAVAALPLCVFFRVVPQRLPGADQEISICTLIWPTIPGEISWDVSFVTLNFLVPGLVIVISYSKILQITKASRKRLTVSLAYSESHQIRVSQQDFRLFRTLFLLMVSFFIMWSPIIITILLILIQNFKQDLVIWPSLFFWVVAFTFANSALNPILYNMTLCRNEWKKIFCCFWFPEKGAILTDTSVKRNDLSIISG

[7] = molecular target: T5, Free fatty acid receptor 3 (Homo sapiens) (UniProt O14843); test: Agonist activity at GPR41 (unknown origin)
T5 sequence (whole entry): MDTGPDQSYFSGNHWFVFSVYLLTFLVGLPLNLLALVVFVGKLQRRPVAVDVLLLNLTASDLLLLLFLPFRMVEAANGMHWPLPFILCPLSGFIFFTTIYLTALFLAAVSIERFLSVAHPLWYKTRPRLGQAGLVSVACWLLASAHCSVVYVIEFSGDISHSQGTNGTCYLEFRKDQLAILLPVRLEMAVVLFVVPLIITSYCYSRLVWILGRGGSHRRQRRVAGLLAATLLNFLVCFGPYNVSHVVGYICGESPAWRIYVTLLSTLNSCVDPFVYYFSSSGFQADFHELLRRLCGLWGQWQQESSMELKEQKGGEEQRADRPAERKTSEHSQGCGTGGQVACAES

Mus musculus = test: Induction of GLP-1 secretion in GPR40 knock-out mouse at 100 mg/kg; format: functional, organism-based
[8] = Drug metabolism in human assessed as (3S)-3-cyclopropyl-3-(3-((5-(5-fluoro-2-hydroxypyridin-4-yl)-6-isobutylpyrazin-2-yl)methoxy)phenyl)propanoic acid metabolite formation by MetID studies; format: ADME
Rattus norvegicus [9] = test: Anti-glycemic activity in fasted Sprague-Dawley ZDF rat assessed as reduction in post-prandial hyperglycemia by measuring AUC(0 to 2 hrs) for blood glucose at 10 mg/kg administered for 1 day and measured on day 1 by OGTT; format: functional
Rattus norvegicus [10] = test: Anti-glycemic activity in fasted Sprague-Dawley ZDF rat assessed as increase in insulin secretion by measuring insulin level in plasma at 10 mg/kg administered 30 mins prior to glucose challenge measured after 140 mins by OGTT; format: functional; settings: time 170 min, 2.833 h
[11] = molecular target: Free fatty acid receptor 1 (Rattus norvegicus) (UniProt Q8K3T4); test: Agonist activity at GPR40 in rat INS1 (832/13) cells assessed as induction of glucose-stimulated insulin secretion in presence of 10 mM glucose; format: cell-based; settings: INS-1 832/13, filed as agonist
[12] = molecular target: Free fatty acid receptor 1 (Rattus norvegicus) (UniProt Q8K3T4); test: Agonist activity at GPR40 receptor in rat INS1(832/13) cells assessed as induction of IP1 accumulation at 10 uM; format: functional, cell-based; settings: INS-1 832/13, filed as agonist
[13] = molecular target: T1, Free fatty acid receptor 1; test: Agonist activity at human GPR40 receptor expressed in CHOK1 cells assessed as induction of IP1 accumulation; format: functional, cell-based, CHO-K1
[14] = molecular target: T1, Free fatty acid receptor 1; test: Agonist activity at human GPR40 receptor expressed in CHOK1 cells assessed as induction of IP1 accumulation at 10 uM relative to AM1638; format: functional, cell-based; settings: CHO-K1, filed as agonist
[15] = Apparent permeability from basolateral to apical side in dog MDCK-MDR1 cells; format: ADME, cell-based, Canis lupus familiaris
[16] = Volume of distribution at steady state in dog; format: ADME, Canis lupus familiaris; settings: in vivo, read-out: Vdss
[17] = Oral bioavailability in cynomolgus monkey; format: ADME, organism-based, Macaca fascicularis; settings: in vivo
[18] = Hepatic clearance in dog; format: ADME, Canis lupus familiaris; settings: in vivo
[19] = Hepatic clearance in rat; format: ADME; settings: in vivo
[20] = Protein binding in cynomolgus monkey plasma; format: ADME, cell-free, Macaca fascicularis; settings: read-out: PPB (converted)
[21] = molecular target: Free fatty acid receptor 1 (Rattus norvegicus, UniProt Q8K3T4); test: Agonist activity at rat GPR40 transfected in HEK293 cells assessed as increase in intracellular calcium level incubated for 1 hr by Fluo-8 dye based fluorescence analysis; format: functional, cell-based
Sequence of Free fatty acid receptor 1 (Rattus norvegicus, UniProt Q8K3T4) (Q8K3T4 whole entry): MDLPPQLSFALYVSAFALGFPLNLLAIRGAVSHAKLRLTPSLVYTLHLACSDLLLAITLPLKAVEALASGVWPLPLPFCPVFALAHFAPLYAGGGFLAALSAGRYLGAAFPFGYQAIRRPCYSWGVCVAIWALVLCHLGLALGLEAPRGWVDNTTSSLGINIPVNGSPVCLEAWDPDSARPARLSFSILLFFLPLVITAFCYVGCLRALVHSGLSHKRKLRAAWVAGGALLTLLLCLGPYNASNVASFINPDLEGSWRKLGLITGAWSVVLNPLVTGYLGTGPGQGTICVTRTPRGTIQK

T1 sequence (O14842 whole entry): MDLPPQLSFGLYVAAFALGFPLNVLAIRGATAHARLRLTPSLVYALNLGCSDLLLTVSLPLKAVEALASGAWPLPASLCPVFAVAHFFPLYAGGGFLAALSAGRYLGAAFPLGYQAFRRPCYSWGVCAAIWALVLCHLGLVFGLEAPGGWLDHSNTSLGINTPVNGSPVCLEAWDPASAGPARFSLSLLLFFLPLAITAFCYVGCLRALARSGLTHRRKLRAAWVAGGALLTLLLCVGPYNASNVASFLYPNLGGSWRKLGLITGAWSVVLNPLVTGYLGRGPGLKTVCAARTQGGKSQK
Sequence of Free fatty acid receptor 1 (Rattus norvegicus) (Q8K3T4 whole entry): as the sequence (Q8K3T4 whole entry) above
Sequence of Cytochrome P450 2D6 (P10635 whole entry): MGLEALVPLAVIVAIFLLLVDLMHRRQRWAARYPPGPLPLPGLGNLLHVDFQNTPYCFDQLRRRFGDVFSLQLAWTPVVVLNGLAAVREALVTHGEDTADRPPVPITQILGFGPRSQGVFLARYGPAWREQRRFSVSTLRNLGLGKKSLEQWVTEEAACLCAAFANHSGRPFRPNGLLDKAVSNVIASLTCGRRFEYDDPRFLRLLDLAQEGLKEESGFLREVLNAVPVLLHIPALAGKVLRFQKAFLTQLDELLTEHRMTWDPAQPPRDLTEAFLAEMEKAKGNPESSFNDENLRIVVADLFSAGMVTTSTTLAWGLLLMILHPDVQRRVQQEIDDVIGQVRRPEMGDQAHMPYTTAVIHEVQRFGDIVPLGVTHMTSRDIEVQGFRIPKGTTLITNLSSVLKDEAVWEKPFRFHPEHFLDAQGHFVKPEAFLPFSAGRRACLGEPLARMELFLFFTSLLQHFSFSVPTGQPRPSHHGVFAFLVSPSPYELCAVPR

Q: What does the source list for COc1cc(-c2ncc(COc3cccc([C@@H](CC(=O)O)C4CC4)c3)nc2CC(C)C)c(F)cn1?
A: fraction unbound [1]: 0.0009; IC50 (Cytochrome P450 2D6): > 10000 nM; Activity [2]: 354%; Activity [3]: Active; Activity [4]: inactive; Activity [5]: inactive; Activity [6]: inactive; Activity [7]: inactive; Activity (Mus musculus): inactive; Drug metabolism [8]: Metabolite_Detected; Activity (Rattus norvegicus [9]): 37373 ng/mL.hr; Activity (Rattus norvegicus [10]): 16925 ng/mL; Activity [11]: Active; Activity [12]: 1170 nM; EC50 [13]: 894 nM; Activity [14]: 121%; Papp B→A [15]: 82 ×10⁻⁶ cm/s; Vd [16]: 1.62 L/kg; bioavailability [17]: 99.4%; CLH [18]: 13.5 mL/min/kg; CLH [19]: 26.8 mL/min/kg; fraction unbound [20]: 0.0009; EC50 [21]: 17 nM
